Source: patent publication US8877741B2, “Pyrrolidine derivatives, pharmaceutical compositions and uses thereof” (Boehringer Ingelheim International GmbH, priority 2013, dated 2014)

Target: human ACC2 (Homo sapiens (Human), UniProt O00763)
Assay: ACC2 assay, spectrophotometric 384 well assay (NADH-linked kinetic method)
Assay type: biochemical
Conditions: human ACC2 construct lacking the 128 N-terminal amino acids; coupled lactate dehydrogenase/pyruvate kinase reaction, 340 nm, 25° C.
Method in brief: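 N-terminally truncated human ACC2 (lacking 128 residues), expressed in insect cells, was coupled to pyruvate kinase/lactate dehydrogenase, with NADH and acetyl-CoA at 2000 μM and ATP at 500 μM final. The OD340 decrease was followed over 15 min at 25 °C. Slopes were normalised to vehicle and no-acetyl-CoA controls, and IC50 came from four-parameter regression.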

human ACC2, sequence (O00763 129-2458): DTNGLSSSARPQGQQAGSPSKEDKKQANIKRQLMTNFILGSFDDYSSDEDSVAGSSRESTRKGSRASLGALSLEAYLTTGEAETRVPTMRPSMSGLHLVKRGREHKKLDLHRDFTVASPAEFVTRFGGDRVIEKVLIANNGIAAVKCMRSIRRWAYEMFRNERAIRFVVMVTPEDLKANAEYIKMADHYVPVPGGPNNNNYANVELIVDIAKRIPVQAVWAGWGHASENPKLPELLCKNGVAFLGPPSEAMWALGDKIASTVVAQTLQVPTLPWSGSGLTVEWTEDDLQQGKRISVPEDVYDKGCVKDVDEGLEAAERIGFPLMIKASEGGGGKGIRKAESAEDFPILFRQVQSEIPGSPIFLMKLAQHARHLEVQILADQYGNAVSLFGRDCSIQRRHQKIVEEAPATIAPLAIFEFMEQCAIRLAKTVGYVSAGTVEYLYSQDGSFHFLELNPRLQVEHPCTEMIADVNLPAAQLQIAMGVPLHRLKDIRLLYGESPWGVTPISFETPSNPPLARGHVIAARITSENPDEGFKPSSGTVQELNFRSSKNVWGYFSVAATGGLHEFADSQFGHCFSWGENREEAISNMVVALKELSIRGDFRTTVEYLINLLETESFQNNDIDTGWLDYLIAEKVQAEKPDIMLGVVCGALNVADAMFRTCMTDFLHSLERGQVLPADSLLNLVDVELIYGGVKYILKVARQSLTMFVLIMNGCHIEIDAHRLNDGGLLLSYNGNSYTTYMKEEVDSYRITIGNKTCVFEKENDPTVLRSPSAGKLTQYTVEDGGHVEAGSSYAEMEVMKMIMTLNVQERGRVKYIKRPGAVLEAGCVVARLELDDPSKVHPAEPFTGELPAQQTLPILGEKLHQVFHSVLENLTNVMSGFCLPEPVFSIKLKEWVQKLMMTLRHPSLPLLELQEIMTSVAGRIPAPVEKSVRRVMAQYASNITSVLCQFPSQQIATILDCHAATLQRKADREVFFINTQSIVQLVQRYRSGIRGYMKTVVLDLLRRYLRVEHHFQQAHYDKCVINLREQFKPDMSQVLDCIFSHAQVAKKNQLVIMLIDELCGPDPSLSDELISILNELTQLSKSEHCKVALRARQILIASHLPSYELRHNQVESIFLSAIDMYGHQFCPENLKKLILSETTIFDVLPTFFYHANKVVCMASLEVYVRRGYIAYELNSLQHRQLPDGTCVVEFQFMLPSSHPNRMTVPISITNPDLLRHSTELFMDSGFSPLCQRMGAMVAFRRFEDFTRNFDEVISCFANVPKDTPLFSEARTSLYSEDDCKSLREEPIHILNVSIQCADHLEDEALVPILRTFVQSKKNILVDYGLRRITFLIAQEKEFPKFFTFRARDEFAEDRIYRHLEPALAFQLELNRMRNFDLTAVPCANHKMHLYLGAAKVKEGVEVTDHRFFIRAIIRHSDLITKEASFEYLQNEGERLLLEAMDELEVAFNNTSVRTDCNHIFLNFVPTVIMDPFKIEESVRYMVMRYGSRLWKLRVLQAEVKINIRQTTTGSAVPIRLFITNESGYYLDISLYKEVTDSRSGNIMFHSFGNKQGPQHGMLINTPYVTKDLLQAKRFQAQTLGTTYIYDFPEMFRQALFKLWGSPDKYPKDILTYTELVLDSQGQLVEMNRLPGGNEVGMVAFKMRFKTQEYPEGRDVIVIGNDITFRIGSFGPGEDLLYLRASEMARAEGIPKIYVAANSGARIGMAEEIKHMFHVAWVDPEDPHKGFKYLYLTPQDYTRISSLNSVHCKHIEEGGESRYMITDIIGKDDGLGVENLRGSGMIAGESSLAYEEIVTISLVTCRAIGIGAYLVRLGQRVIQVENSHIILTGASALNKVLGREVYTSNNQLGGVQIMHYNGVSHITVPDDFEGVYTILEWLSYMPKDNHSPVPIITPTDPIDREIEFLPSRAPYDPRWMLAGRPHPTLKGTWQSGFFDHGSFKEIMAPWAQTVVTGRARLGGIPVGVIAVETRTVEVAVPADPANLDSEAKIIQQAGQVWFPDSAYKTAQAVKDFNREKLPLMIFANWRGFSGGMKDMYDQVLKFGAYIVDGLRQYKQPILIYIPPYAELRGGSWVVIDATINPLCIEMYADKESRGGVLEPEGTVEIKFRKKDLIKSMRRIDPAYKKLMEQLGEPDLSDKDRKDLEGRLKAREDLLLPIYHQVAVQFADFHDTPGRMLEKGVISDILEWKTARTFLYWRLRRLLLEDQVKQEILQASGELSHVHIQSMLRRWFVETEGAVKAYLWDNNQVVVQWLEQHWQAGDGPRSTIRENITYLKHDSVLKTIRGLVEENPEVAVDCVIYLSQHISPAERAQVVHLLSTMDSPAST

IC50 [nM] | Compound
50 | CNC(=O)N[C@@H](C)c1ccc(OC2CCN(c3ccnc(OCC4CC4)c3)C2)cc1 (stereo partly shown) [Example 3.5]
110 | CCN(C)C(=O)N[C@@H](C)c1ccc(OC2CCN(c3ccnc(OCC4CC4)c3)C2)cc1 (stereo partly shown) [Example 3.6]
444 | COCCN(C)C(=O)N[C@@H](C)c1ccc(OC2CCN(c3ccc(OCC4CC4(F)F)cn3)C2)cc1 (stereo partly shown) [Example 3.7]
90 | CCN(C)C(=O)N[C@@H](C)c1ccc(OC2CCN(c3ccc(OCC4CC4(F)F)cn3)C2)cc1 (stereo partly shown) [Example 3.8]
200 | C[C@H](NC(=O)N1CCC1)c1ccc(OC2CCN(c3ccc(OCC4CC4(F)F)cn3)C2)cc1 (stereo partly shown) [Example 3.9]
112 | C[C@H](NC(=O)N1CCOCC1)c1ccc(OC2CCN(c3ccc(OCC4CC4(F)F)cn3)C2)cc1 (stereo partly shown) [Example 3.10]
314 | CC(=O)NC1CCN(C(=O)N[C@@H](C)c2ccc(OC3CCN(c4ccc(OCC5CC5(F)F)cn4)C3)cc2)CC1 (stereo partly shown) [Example 3.11]
144 | C[C@H](NC(=O)N1CCOCC1)c1ccc(OC2CCN(c3ccnc(OCC4CC4)c3)C2)cc1 (stereo partly shown) [Example 3.12]
497 | C[C@H](NC(=O)N1CCOCC1)c1ccc(OC2CCN(c3ccnc(OCC(F)F)c3)C2)cc1 (stereo partly shown) [Example 3.13]
238 | CNC(=O)N[C@@H](C)c1ccc(OC2CCN(c3ccnc(OCC(F)F)c3)C2)cc1 (stereo partly shown) [Example 3.14]
313 | CCNC(=O)N[C@@H](C)c1ccc(OC2CCN(c3ccnc(OCC(F)F)c3)C2)cc1 (stereo partly shown) [Example 3.16]
138 | C[C@H](NC(=O)N(C)C)c1ccc(OC2CCN(c3ccnc(OCC(F)F)c3)C2)cc1 (stereo partly shown) [Example 3.17]
423 | C[C@H](NC(=O)N1CCCC1)c1ccc(OC2CCN(c3ccc(OCC4CC4(F)F)cn3)C2)cc1 (stereo partly shown) [Example 3.18]
1440 | CC(=O)NC1CCN(C(=O)N[C@@H](C)c2ccc(OC3CCN(c4ccc(OCC5CC5(F)F)cn4)C3)cc2)C1 (stereo partly shown) [Example 3.19]
92 | CNC(=O)N[C@@H](C)c1ccc(OC2CCN(c3ccc(OCC4CC4(F)F)cn3)C2)cc1 (stereo partly shown) [Example 3.20]
363 | CC(=O)NC1CCCN(C(=O)N[C@@H](C)c2ccc(OC3CCN(c4ccc(OCC5CC5(F)F)cn4)C3)cc2)C1 (stereo partly shown) [Example 3.21]
50 | C[C@H](NC(=O)N(C)C)c1ccc(OC2CCN(c3ccnc(N4CCC(F)(F)C4)c3F)C2)cc1 (stereo partly shown) [Example 3.22]
205 | C[C@H](NC(=O)N1CCOCC1)c1ccc(OC2CCN(c3ccnc(N4CCC(F)(F)C4)c3F)C2)cc1 (stereo partly shown) [Example 3.23]
39 | COC(=O)N[C@@H](C)c1ccc(O[C@@H]2CCN(c3ccc(OC[C@H]4CC4(F)F)cn3)C2)cc1 [Example 4.1, Methyl (S)-1-(4-((R)-1-(5-(((R)-2,2-difluorocyclopropyl)methoxy)pyridin-2-yl)pyrrolidin-3-yloxy)phenyl)ethylcarbamate]
139 | COC(=O)N[C@@H](C)c1ccc(OC2CCN(c3cccc(C(F)(F)F)n3)C2)cc1 (stereo partly shown) [Example 4.2]
59 | COC(=O)N[C@@H](C)c1ccc(OC2CCN(c3ccc(OCC4CC4(F)F)cn3)C2)cc1 (stereo partly shown) [Example 4.3]
70 | COC(=O)N[C@@H](C)c1ccc(OC2CCN(c3ccnc(OCC4CC4)c3)C2)cc1 (stereo partly shown) [Example 4.4]
166 | COC(=O)N[C@@H](C)c1ccc(OC2CCN(c3ccnc(OCC(F)F)c3)C2)cc1 (stereo partly shown) [Example 4.5]

IC50 [nM] | Compound
68 | COC(=O)N[C@@H](C)c1ccc(OC2CCN(c3ccnc(OCC4CC4(F)F)c3F)C2)cc1 (stereo partly shown) [Example 4.6]
134 | COC(=O)N[C@@H](C)c1ccc(OC2CCN(c3ccnc(N4CCC(F)(F)C4)c3F)C2)cc1 (stereo partly shown) [Example 4.7]
77 | CCCNc1nccc(N2CCC(Oc3ccc([C@H](C)NC(=O)OC)cc3)C2)c1F (stereo partly shown) [Example 4.8]
649 | C[C@H](NC(=O)C(C)(C)C)c1ccc(O[C@@H]2CCN(c3cccc(C(F)(F)F)n3)C2)cc1 [Example 5.1, N—((S)-1-(4-((R)-1-(6-(Trifluoromethyl)pyridin-2-yl)pyrrolidin-3-yloxy)phenyl)ethyl) pivalamide]
90 | C[C@H](NC(=O)N(C)C)c1ccc(OC2CCN(c3cccc(C(F)(F)F)n3)C2)cc1 (stereo partly shown) [Example 5.2]
34 | CCC(=O)N[C@@H](C)c1ccc(OC2CCN(c3ccnc(N4CCC(F)(F)C4)c3F)C2)cc1 (stereo partly shown) [Example 5.3]
49 | C[C@H](NC(=O)N(C)C)c1ccc(OC2CCN(c3ccnc(OCC4CC4(F)F)c3F)C2)cc1 (stereo partly shown) [Example 5.4]
310 | C[C@H](NC(=O)N1CCOCC1)c1ccc(OC2CCN(c3ccnc(OCC4CC4(F)F)c3F)C2)cc1 (stereo partly shown) [Example 5.5]
36 | CCCNc1nccc(N2CCC(Oc3ccc([C@H](C)NC(=O)N(C)C)cc3)C2)c1F (stereo partly shown) [Example 5.6]
117 | CCCNc1nccc(N2CCC(Oc3ccc([C@H](C)NC(=O)NCC)cc3)C2)c1F (stereo partly shown) [Example 5.7]
141 | CCCNc1nccc(N2CCC(Oc3ccc([C@H](C)NC(=O)N4CCOCC4)cc3)C2)c1F (stereo partly shown) [Example 5.8]
73 | C[C@H](NC(=O)N(C)C)c1ccc(OC2CCN(c3ccnc(OCC(F)F)c3F)C2)cc1 (stereo partly shown) [Example 5.9]
428 | CC(O)C(=O)N[C@@H](C)c1ccc(OC2CCN(c3cccc(C(F)(F)F)n3)C2)cc1 (stereo partly drawn) [Example 6.1, 2-Hydroxy-N—((S)-1-(4-((R)-1-(6-(trifluoromethyl)pyridin-2-yl)pyrrolidin-3-yloxy)phenyl)ethyl)propanamide]
614 | C[C@H](NC(=O)CO)c1ccc(OC2CCN(c3cccc(C(F)(F)F)n3)C2)cc1 (stereo partly shown) [Example 6.2]
400 | C[C@H](NC(=O)C(F)(F)C(F)(F)F)c1ccc(O[C@@H]2CCN(c3cccc(C(F)(F)F)n3)C2)cc1 [Example 7.1, 2,2,3,3,3-Pentafluoro-N—((S)-1-(4-((R)-1-(6-(trifluoromethyl)pyridin-2-yl)pyrrolidin-3-yloxy)phenyl)ethyl)propanamide]
54 | C[C@H](NC(=O)C(F)(F)F)c1ccc(OC2CCN(c3ccnc(OCC4CC4)c3)C2)cc1 (stereo partly shown) [Example 7.3]
62 | CC(=O)N[C@@H](C)c1ccc(O[C@@H]2CCN(c3cccc(C(F)(F)F)n3)C2)cc1 [Example 8.1, N—((S)-1-(4-((R)-1-(6-(Trifluoromethyl)pyridin-2-yl)pyrrolidin-3-yloxy)phenyl)ethyl)acetamide]
565 | CC(=O)N[C@@H](C)c1ccc(O[C@@H]2CCN(c3cc(Cl)ncc3C)C2)cc1 [Example 8.2]
755 | CC(=O)N[C@@H](C)c1ccc(O[C@@H]2CCN(c3ncc(C(F)(F)F)cc3F)C2)cc1 [Example 8.3]
438 | CC(=O)N[C@@H](C)c1ccc(O[C@@H]2CCN(c3ccnc(C(F)(F)F)c3)C2)cc1 [Example 8.4]
530 | CC(=O)N[C@@H](C)c1ccc(O[C@@H]2CCN(c3ccnc(C(=O)N4CCc5c4ccc(F)c5F)c3)C2)cc1 [Example 8.5]
910 | CC(=O)N[C@@H](C)c1ccc(O[C@@H]2CCN(c3cc(C(F)(F)F)ccn3)C2)cc1 [Example 8.7]
265 | CC(=O)N[C@@H](C)c1ccc(O[C@@H]2CCN(c3ccc(Cl)c(C(F)(F)F)n3)C2)cc1 [Example 8.8]

IC50 [nM] | Compound
105 | CO[C@@H]1CN(c2cccc(C(F)(F)F)n2)C[C@@H]1Oc1ccc([C@H](C)NC(C)=O)cc1 [Example 8.9]
693 | COc1cnc(N2CC[C@@H](Oc3ccc([C@H](C)NC(C)=O)cc3)C2)c(Cl)c1 [Example 8.10]
1100 | CC(=O)N[C@@H](C)c1ccc(O[C@@H]2CCN(c3ccnc(C(=O)Nc4ccc(Cl)cc4)c3)C2)cc1 [Example 8.11]
39 | CC(=O)N[C@@H](C)c1ccc(O[C@@H]2CCN(c3ccnc(OC4CCC4)c3)C2)cc1 [Example 9.1]
41 | CC(=O)N[C@@H](C)c1ccc(O[C@@H]2CCN(c3ccnc(OCC(C)C)c3)C2)cc1 [Example 9.2]
480 | COCC(C)Oc1cc(N2CC[C@@H](Oc3ccc([C@H](C)NC(C)=O)cc3)C2)ccn1 (stereo partly shown) [Example 9.3]
75 | CCC(C)Oc1cc(N2CC[C@@H](Oc3ccc([C@H](C)NC(C)=O)cc3)C2)ccn1 (stereo partly shown) [Example 9.4]
390 | CC#CCCOc1cc(N2CC[C@@H](Oc3ccc([C@H](C)NC(C)=O)cc3)C2)ccn1 [Example 9.5]
90 | CC(=O)N[C@@H](C)c1ccc(O[C@@H]2CCN(c3ccnc(OCc4ccc(F)cc4)c3)C2)cc1 [Example 9.6]
40 | CC(=O)N[C@@H](C)c1ccc(O[C@@H]2CCN(c3ccnc(OC4CCCCC4)c3)C2)cc1 [Example 9.7]
268 | CC#CCOc1cc(N2CC[C@@H](Oc3ccc([C@H](C)NC(C)=O)cc3)C2)ccn1 [Example 9.8]
140 | CC(=O)N[C@@H](C)c1ccc(O[C@@H]2CCN(c3ccnc(OCc4cccc(F)c4)c3)C2)cc1 [Example 9.9]
184 | CC(=O)N[C@@H](C)c1ccc(O[C@@H]2CCN(c3ccnc(O[C@@H]4CCOC4)c3)C2)cc1 [Example 9.10]
68 | CC(=O)N[C@@H](C)c1ccc(O[C@@H]2CCN(c3ccnc(OC4CC=CC4)c3)C2)cc1 [Example 9.11]
534 | CC(=O)N[C@@H](C)c1ccc(O[C@@H]2CCN(c3ccnc(OCCc4ccccc4)c3)C2)cc1 [Example 9.12]
230 | CC(=O)N[C@@H](C)c1ccc(O[C@@H]2CCN(c3ccnc(OC4Cc5ccccc5C4)c3)C2)cc1 [Example 9.13]
75 | CC(=O)N[C@@H](C)c1ccc(O[C@@H]2CCN(c3ccnc(OCCC4CC4)c3)C2)cc1 [Example 9.14]
40 | CC(=O)N[C@@H](C)c1ccc(O[C@@H]2CCN(c3ccnc(OCC4CCC4)c3)C2)cc1 [Example 9.15]
35 | CC(=O)N[C@@H](C)c1ccc(O[C@@H]2CCN(c3ccnc(OCC4(C)CC4)c3)C2)cc1 [Example 9.16]
77 | C=C(C)COc1cc(N2CC[C@@H](Oc3ccc([C@H](C)NC(C)=O)cc3)C2)ccn1 [Example 9.17]
482 | COCCOc1cc(N2CC[C@@H](Oc3ccc([C@H](C)NC(C)=O)cc3)C2)ccn1 [Example 9.18]
